From PubChem BioAssay AID330 (DTP/NCI, 2004)
“And” between values parts separate entries of the source, which are not always exact repeats. Identical values can stand only once. Toxic doses and inconclusive results are not listed. The calls were made as follows: active = survival T/C of 150% or more; inactive = T/C below 125% in these data. Peptide text beside a SMILES is read from it. * marks the point of attachment. Boc = CC(C)(C)OC(=O)*

System: P388 leukemia ip, CD2F1 mice, survival T/C
Assay: NCI In Vivo Anticancer Drug Screen. Data for tumor model P388 Leukemia (intraperitoneal) in CD2F1 (CDF1) mice
Conditions: endpoint: median survival time, higher = longer survival
In short: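 Mice carrying the transplanted tumor received test compound or vehicle. Survival was recorded in each group, and the value is the treated-group measurement divided by that of the vehicle-treated control group.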

[1] = dose: 50.0 mg/kg/injection, schedule: Q01DX009 (ip), vehicle: saline with Tween-80
[2] = dose: 100.0 mg/kg/injection, schedule: Q01DX009 (ip), vehicle: saline with Tween-80
[3] = dose: 200.0 mg/kg/injection, schedule: Q01DX009 (ip), vehicle: saline with Tween-80
[4] = dose: 50.0 mg/kg/injection, schedule: Q01DX005 (ip), vehicle: saline with Tween-80
[5] = dose: 100.0 mg/kg/injection, schedule: Q01DX005 (ip), vehicle: saline with Tween-80
[6] = dose: 200.0 mg/kg/injection, schedule: Q01DX005 (ip), vehicle: saline with Tween-80
[7] = dose: 50.0 mg/kg/injection, schedule: Q01DX005 (ip), vehicle: Klucel (hydroxypropylcellulose) (HPC)
[8] = dose: 100.0 mg/kg/injection, schedule: Q01DX005 (ip), vehicle: Klucel (hydroxypropylcellulose) (HPC)
[9] = dose: 200.0 mg/kg/injection, schedule: Q01DX005 (ip), vehicle: Klucel (hydroxypropylcellulose) (HPC)
[10] = dose: 50.0 mg/kg/injection, schedule: Q01DX005 (ip), vehicle: saline
[11] = dose: 100.0 mg/kg/injection, schedule: Q01DX005 (ip), vehicle: saline
[12] = dose: 200.0 mg/kg/injection, schedule: Q01DX005 (ip), vehicle: saline
[13] = dose: 60.0 mg/kg/injection, schedule: Q01DX005 (ip), vehicle: Klucel (hydroxypropylcellulose) (HPC)
[14] = dose: 120.0 mg/kg/injection, schedule: Q01DX005 (ip), vehicle: Klucel (hydroxypropylcellulose) (HPC)

Measured: T/C

COc1ccc2c(c1)[C@@]13CCCCC1[C@@H](C2)N(CC1CC1)CC3 (some centres not stated)
inactive: dose: 100.0 mg/kg/injection, schedule: Q01DX001 (ip), vehicle: Klucel (hydroxypropylcellulose) (HPC) 100 % of control | dose: 200.0 mg/kg/injection, schedule: Q01DX001 (ip), vehicle: Klucel (hydroxypropylcellulose) (HPC) 100 % of control

c1ccc(N=NC(c2ccccc2)(c2ccccc2)c2ccccc2)cc1
inactive: dose: 6.25 mg/kg/injection, schedule: Q01DX009 (ip), vehicle: Klucel (hydroxypropylcellulose) (HPC) 110 % of control | dose: 12.5 mg/kg/injection, schedule: Q01DX009 (ip), vehicle: Klucel (hydroxypropylcellulose) (HPC) 110 % of control | dose: 25.0 mg/kg/injection, schedule: Q01DX009 (ip), vehicle: Klucel (hydroxypropylcellulose) (HPC) 99 % of control | dose: 50.0 mg/kg/injection, schedule: Q01DX009 (ip), vehicle: Klucel (hydroxypropylcellulose) (HPC) 107 % of control

O=C1c2ccccc2C(=O)c2c1ccc1c2OCO1
inactive: dose: 5.0 mg/kg/injection, schedule: Q01DX005 (ip), vehicle: Klucel (hydroxypropylcellulose) (HPC) 96 % of control | dose: 10.0 mg/kg/injection, schedule: Q01DX005 (ip), vehicle: Klucel (hydroxypropylcellulose) (HPC) 87 % of control | dose: 20.0 mg/kg/injection, schedule: Q01DX005 (ip), vehicle: Klucel (hydroxypropylcellulose) (HPC) 86 % of control and 88 % of control | dose: 40.0 mg/kg/injection, schedule: Q01DX005 (ip), vehicle: Klucel (hydroxypropylcellulose) (HPC) 95 % of control

CC(C)(C)N=C(CCSc1ccccc1)Nc1ccccc1Cl
inactive: [1] 108 % of control | [2] 109 % of control | [3] 113 % of control

CCOC(=Nc1ccc(F)cc1)SC(c1ccccc1)(c1ccccc1)c1ccccc1
inactive: [4] 110 % of control | [5] 104 % of control | [6] 99 % of control

CC(=O)OCC(Br)C(Br)COC(C)=O (configuration not stated)
inactive: dose: 100.0 mg/kg/injection, schedule: Q04DX003 (ip), vehicle: saline with Tween-80 100 % of control | dose: 200.0 mg/kg/injection, schedule: Q04DX003 (ip), vehicle: saline with Tween-80 100 % of control | dose: 400.0 mg/kg/injection, schedule: Q04DX003 (ip), vehicle: saline with Tween-80 100 % of control

Cc1nc2ccccc2c(=O)n1/N=C/c1cccc([N+](=O)[O-])c1
inactive: [4] 104 % of control | [5] 99 % of control | [6] 98 % of control

CCCC(Cc1ccccc1)C(=O)O (configuration not stated)
inactive: dose: 100.0 mg/kg/injection, schedule: Q01DX001 (ip), vehicle: saline with Tween-80 123 % of control | dose: 200.0 mg/kg/injection, schedule: Q01DX001 (ip), vehicle: saline with Tween-80 108 % of control | dose: 400.0 mg/kg/injection, schedule: Q01DX001 (ip), vehicle: saline with Tween-80 124 % of control

COC(=O)C(Cc1ccccc1)NC(=O)C(Cc1ccccc1)NC(=O)OC(C)(C)C (stereo not drawn) (Boc-Phe-Phe-OMe; configuration not given here)
inactive: [7] 97 % of control | [8] 95 % of control | [9] 101 % of control

C=CCn1nc([O-])[n+]2ccccc12
inactive: dose: 100.0 mg/kg/injection, schedule: Q01DX001 (ip), vehicle: saline 95 % of control | dose: 200.0 mg/kg/injection, schedule: Q01DX001 (ip), vehicle: saline 95 % of control | dose: 400.0 mg/kg/injection, schedule: Q01DX001 (ip), vehicle: saline 104 % of control

Cc1nn(C(=S)S)c(C)c1N=Nc1ccc([N+](=O)[O-])cc1
inactive: dose: 25.0 mg/kg/injection, schedule: Q01DX005 (ip), vehicle: Klucel (hydroxypropylcellulose) (HPC) 94 % of control | [7] 104 % of control | [8] 108 % of control

COC1=CC=C2CC(=C1)CCC1C2CCC2(C)C(=O)CCC12 (configuration not stated)
inactive: [7] 100 % of control | [8] 96 % of control | [9] 91 % of control

Cc1nonc1CCO
inactive: [10] 105 % of control | [11] 102 % of control | [12] 103 % of control

CCOC1(OCC)Oc2c(c3ccccc3c3ccccc23)/C1=C1\c2c(c3ccccc3c3ccccc23)OC1(OCC)OCC
inactive: [4] 94 % of control | [5] 92 % of control

COc1ccc(N=Nc2c(C)nn(C(N)=S)c2C)cc1
inactive: dose: 100.0 mg/kg/injection, schedule: Q04DX002 (ip), vehicle: Klucel (hydroxypropylcellulose) (HPC) 93 % of control | dose: 200.0 mg/kg/injection, schedule: Q04DX002 (ip), vehicle: Klucel (hydroxypropylcellulose) (HPC) 92 % of control | dose: 400.0 mg/kg/injection, schedule: Q04DX002 (ip), vehicle: Klucel (hydroxypropylcellulose) (HPC) 94 % of control

N#CN=[N+]([O-])c1ccc(C(=O)O)cc1
inactive: dose: 7.5 mg/kg/injection, schedule: Q04DX003 (ip), vehicle: Klucel (hydroxypropylcellulose) (HPC) 97 % of control | dose: 7.5 mg/kg/injection, schedule: Q04DX003 (ip), vehicle: saline with Tween-80 111 % of control | dose: 15.0 mg/kg/injection, schedule: Q04DX003 (ip), vehicle: Klucel (hydroxypropylcellulose) (HPC) 105 % of control | dose: 15.0 mg/kg/injection, schedule: Q04DX003 (ip), vehicle: saline with Tween-80 112 % of control | dose: 30.0 mg/kg/injection, schedule: Q04DX003 (ip), vehicle: saline with Tween-80 124 % of control

Cn1cc2c(=O)n(C)ncc2n1
inactive: dose: 60.0 mg/kg/injection, schedule: Q01DX005 (ip), vehicle: saline 100 % of control | dose: 120.0 mg/kg/injection, schedule: Q01DX005 (ip), vehicle: saline 109 % of control | dose: 240.0 mg/kg/injection, schedule: Q01DX005 (ip), vehicle: saline 100 % of control

[N-]=[N+]=Nc1ccc(SSCCC(=O)ON2C(=O)CCC2=O)cc1
inactive: [4] 118 % of control | [5] 116 % of control

CCN(CC)CCC(=O)c1ccccc1
inactive: dose: 12.5 mg/kg/injection, schedule: Q01DX009 (ip), vehicle: saline with Tween-80 102 % of control and 89 % of control | dose: 25.0 mg/kg/injection, schedule: Q01DX009 (ip), vehicle: saline with Tween-80 108 % of control | dose: 25.0 mg/kg/injection, schedule: Q01DX009 (ip), vehicle: saline 97 % of control | [1] 109 % of control and 91 % of control | dose: 50.0 mg/kg/injection, schedule: Q01DX009 (ip), vehicle: saline 96 % of control | [2] 123 % of control

CCOC(=O)/C=C/C(=O)O (tested in a mixture with another compound)
inactive: dose: 100.0 mg/kg/injection, schedule: Q04DX003 (ip), vehicle: saline 100 % of control | dose: 200.0 mg/kg/injection, schedule: Q04DX003 (ip), vehicle: saline 98 % of control | dose: 400.0 mg/kg/injection, schedule: Q04DX003 (ip), vehicle: saline 96 % of control

NC(Cn1ccc(=O)c(O)c1)C(=O)O (configuration not stated)
inactive: dose: 12.5 mg/kg/injection, schedule: Q01DX005 (ip), vehicle: saline 113 % of control | dose: 25.0 mg/kg/injection, schedule: Q01DX005 (ip), vehicle: saline 115 % of control | [10] 107 % of control | [11] 116 % of control | dose: 100.0 mg/kg/injection, schedule: Q01DX009 (ip), vehicle: saline 100 % of control and 96 % of control | [12] 114 % of control | dose: 200.0 mg/kg/injection, schedule: Q01DX009 (ip), vehicle: saline 102 % of control and 114 % of control | dose: 400.0 mg/kg/injection, schedule: Q01DX009 (ip), vehicle: saline 107 % of control and 96 % of control | dose: 600.0 mg/kg/injection, schedule: Q01DX009 (ip), vehicle: saline 98 % of control and 102 % of control

CCOC(=O)c1ccc(N2N=C3C(=CC(=O)c4ccccc43)SCC2=O)cc1
inactive: dose: 12.5 mg/kg/injection, schedule: Q01DX005 (ip), vehicle: saline with Tween-80 112 % of control | dose: 25.0 mg/kg/injection, schedule: Q01DX005 (ip), vehicle: saline with Tween-80 117 % of control | [4] 116 % of control

c1ccc(-c2ccc(NCCN3CCOCC3)nn2)cc1
inactive: [13] 100 % of control | [14] 105 % of control

CCCCCCCCCSc1ccc(C(=O)O)cc1
inactive: [2] 109 % of control | [3] 103 % of control | dose: 400.0 mg/kg/injection, schedule: Q01DX009 (ip), vehicle: saline with Tween-80 105 % of control

Nc1ncnc2ncn(CC(O)CN(CCO)CCO)c12 (configuration not stated)
inactive: [13] 100 % of control | [14] 97 % of control | dose: 240.0 mg/kg/injection, schedule: Q01DX005 (ip), vehicle: Klucel (hydroxypropylcellulose) (HPC) 95 % of control

CCOC(=O)C(C(C)O)C1CC=CC1 (configuration not stated)
inactive: [4] 108 % of control | [5] 100 % of control | [6] 104 % of control
